By melting point is commonly meant the temperature of the solid-liquid transition.

A value given as a limit tells only on which side of the number the result lay.

On to `Cl.O=C(O)c1cc2ccccc2cc1S[C@H]1CC[C@H]2CN[C@H](C(=O)O)C[C@H]2C1`, for which the melting point was > 183 °C (dec.).

Take `Cc1ccc(C(=O)O)c(S[C@H]2CC[C@H]3CN[C@H](C(=O)O)C[C@H]3C2)c1.Cl`: the melting point is > 177 °C (dec.).

The values above are taken from patent publication US7601738B2, “Excitatory amino acid receptor antagonists” (Eli Lilly and Company, priority 2001, dated 2009).
